Consider one compound from publication PMC11003925, “Antimicrobial activity and properties of de novo design of short synthetic lipopeptides” (Folia Microbiologica, 2024).

The test system of data set [1] is HEK293T. Nature of the data set: Cytotoxicity assay (xCELLigence impedance). Type of data set: cell-based, human. Particulars: 24 h exposure.
Data set [2] concerns HepG2. Nature of the data set: Cytotoxicity assay (xCELLigence impedance). It counts as cell-based, human. Particulars: 24 h exposure.
Data set [3] deals with plasmid pGreen 0029. Nature of the data set: DNA binding assay (gel retardation). Particulars: circular or linearized forms, tested ratios.

Residues, ends and D or L forms follow the SMILES beside them. *: point of attachment. Palmitoyl = CCCCCCCCCCCCCCCC(=O)*

Consider `CCCCCCCCCCCCCCCC(=O)N[C@@H](CC(C)C)C(=O)N[C@H](C(=O)N[C@@H](CCCCN)C(=O)N[C@@H](CCCNC(=N)N)C(=O)N[C@@H](C)C(=O)NCC(N)=O)C(C)C` [SHP-1.2, PAL-LVKRAG-NH2] (Palmitoyl-LVKRAG-NH2), for which the % inhibition – broadly, how much of the control response was suppressed – is 37.6 ± 5.6% in data set [1] (c 50 µg/mL); 77.8 ± 11.7% in data set [1] (c 100 µg/mL); 73.1 ± 11.0% in data set [1] (c 200 µg/mL); 4.1 ± 0.6% in data set [2] (c 50 µg/mL); 42.2 ± 6.3% in data set [2] (c 100 µg/mL); 67.9 ± 10.2% in data set [2] (c 200 µg/mL). In addition, the “influence on electrophoretic mobility of plasmid DNA” value in data set [3] is listed as “did not exhibit any influence”.
